The values that follow come from PMC2745609 (Journal of medicinal chemistry, 2009).

The target in one assay is HIV-1 protease (Human immunodeficiency virus type 1 group M subtype B, UniProt P04585). Description: HIV-1 protease enzyme inhibition. The assay is classed as biochemical. The following applies: for fold improvement of enzyme Ki over 17a: relative to 17a.
The subject of the next assay is HIV-1lai. As to the kind of experiment: Antiviral activity in MT-2 human T-lymphoid cells exposed to HIV-1LAI, MTT assay. The following applies: for IC50: Human immunodeficiency virus 1, MT2, in Homo sapiens. The assay is classed as cell-based. Background: Tetrazolium dyes change colour on reduction, which living cells bring about.
For assay [1], the system named is HIV-1ERS104pre (wild-type). Description: Anti-HIV activity in PHA-PBM, p24 Gag production, wild-type clinical isolate. As to conditions: Human immunodeficiency virus 1, PBMC, read-out: IC50 against HIV-1ERS104pre. The assay is classed as cell-based.

Some results are limits rather than exact numbers.

In the case of `COc1ccc(S(=O)(=O)N(C[C@@H]2CCC(=O)N2)C[C@@H](O)[C@H](Cc2ccccc2)NC(=O)O[C@H]2CO[C@H]3OCC[C@H]32)cc1` [Inhibitor 17a, (3R,3aS,6aR)-Hexahydrofuro[2,3-b]furan-3-yl(2S,3R)-3-hydroxy-4-(4-methoxy-N-(((S)-5-oxopyrrolidin-2-yl)methyl)phenylsulfonamido)-1-phenylbutan-2-yl-carbamate], the Ki (as a rule, the equilibrium dissociation constant of an inhibitor or competing ligand from its target) at HIV-1 protease (Ki (nM), enzyme inhibitory potency) was 1 nM.

On to `Nc1ccc(S(=O)(=O)N(C[C@@H]2CCC(=O)N2)C[C@@H](O)[C@H](Cc2ccccc2)NC(=O)O[C@H]2CO[C@H]3OCC[C@H]32)cc1` [Inhibitor 18a, (3R,3aS,6aR)-Hexahydrofuro[2,3-b]furan-3-yl(2S,3R)-4-(4-amino-N-(((S)-5-oxopyrrolidin-2-yl)methyl)phenylsulfonamido)-3-hydroxy-1-phenylbutan-2-ylcarbamate], for which the IC50 (as a rule, the point on the concentration scale where inhibition reaches its midpoint) in the assay with HIV-1lai was more than 1000 nM. For `CC(C)(C)NC(=O)[C@@H]1C[C@@H]2CCCC[C@@H]2CN1C[C@@H](O)[C@H](Cc1ccccc1)NC(=O)[C@H](CC(N)=O)NC(=O)c1ccc2ccccc2n1` [saquinavir, reference compound], the IC50 in the assay on HIV-1lai came to 15 nM. Regarding `CC(C)(C)NC(=O)[C@@H]1CN(Cc2cccnc2)CCN1C[C@@H](O)C[C@@H](Cc1ccccc1)C(=O)N[C@H]1c2ccccc2C[C@H]1O` [indinavir, reference compound], the IC50 in the assay on HIV-1lai amounted to 30 nM; in assay [1] it was 28 nM. In the case of `CC(C)CN(C[C@@H](O)[C@H](Cc1ccccc1)NC(=O)O[C@H]1CCOC1)S(=O)(=O)c1ccc(N)cc1` [amprenavir, reference compound], the IC50 in the assay on HIV-1lai came out at 30 nM; in assay [1], 25 nM.

For `COc1ccc(S(=O)(=O)N(C[C@@H]2CCC(=O)N2)C[C@@H](O)[C@H](Cc2ccccc2)NC(=O)O[C@@H]2C[C@@H]3CCO[C@@H]3C2)cc1` [Inhibitor 17b, (3aS,5R,6aR)-Hexahydro-2H–cyclopenta[b]furan-5-yl-(2S,3R)-3-hydroxy-4-(4-methoxy-N-(((S)-5-oxopyrrolidin-2-yl)methyl)phenylsulfonamido)-1-phenylbutan-2-ylcarbamate], the “fold improvement of enzyme Ki over 17a” value on HIV-1 protease was found to be 3 fold.

Regarding `COc1ccc(S(=O)(=O)N(C[C@H]2CCC(=O)N2)C[C@@H](O)[C@H](Cc2ccccc2)NC(=O)O[C@H]2CO[C@H]3OCC[C@H]32)cc1` [Inhibitor 19a, (3R,3aS,6aR)-Hexahydrofuro[2,3-b]furan-3-yl(2S,3R)-3-hydroxy-4-(4-methoxy-N-(((R)-5-oxopyrrolidin-2-yl)methyl)phenylsulfonamido)-1-phenylbutan-2ylcarbamate], the “fold improvement of enzyme Ki over 17a” value on HIV-1 protease is listed as 10 fold.

With `COc1ccc(S(=O)(=O)N(C[C@H]2CCC(=O)N2)C[C@@H](O)[C@H](Cc2ccccc2)NC(=O)O[C@@H]2C[C@@H]3CCO[C@@H]3C2)cc1` [Inhibitor 19b, (3aS,5R,6aR)-Hexahydro-2H–cyclopenta[b]furan-5-yl-(2S,3R)-3-hydroxy-4-(4-methoxy-N-(((R)-5-oxopyrrolidin-2-yl)methyl)phenylsulfonamido)-1-phenylbutan-2-ylcarbamate], the “fold improvement in antiviral activity relative to 17b” value with HIV-1lai (relative to epimeric (S)-pyrrolidinone derivative 17b) was found to be 10 fold. The half-maximal inhibitory concentration (IC50) in assay [1] is 28 nM. Take `Nc1ccc(S(=O)(=O)N(C[C@@H]2COC(=O)N2)C[C@@H](O)[C@H](Cc2ccccc2)NC(=O)O[C@H]2CO[C@H]3OCC[C@H]32)cc1` [Inhibitor 30, (3R,3aS,6aR)-hexahydrofuro[2,3-b]furan-3-yl-(2S,3R)-4-(4-amino-N-(((R)-2-oxooxazolidin-4-yl)methyl)phenylsulfonamido)-3-hydroxy-1-phenylbutan-2-ylcarbamate]: in the assay with HIV-1lai, the IC50 was more than 1000 nM.
